Measured values published in PubChem BioAssay AID1963975 (Molecular Pharmacology Branch, DTP, NCI, 2024).
Each block holds one compound with its values, some of them ahead of it.

Tested on: 624824-186-R-J2-PDC multicell spheroids, viability
Test: Anticancer human tumor 624824-186-R-J2-PDC patient-derived colon adenocarcinoma cell line growth inhibition [PI3K]
Conditions: for IC50: curve of first compound; for viability, T/C: stronger effect = lower value
Source text: Combinatorial screen of targeted agents with the PI3K inhibitors inavolisib, alpelisib, duvelisib, and copanlisib in multi-cell type tumor spheroids
A high-throughput screen of multi-cell type tumor spheroids was designed to identify active combinations of targeted small molecules and PI3K pathway inhibitors. Complex spheroids include a stromal component modeled by human endothelial cells (HUVEC) and fibroblasts modeled by human mesenchymal stem cells (MSCs). The concentration ranges selected for each drug and investigational agent were based upon clinically achievable concentrations if the clinical Cmax of the agent was known.
Compounds. The drugs and investigational agents: inavolisib (NSC800729), alpelisib (NSC765974), duvelisib (NSC772469), copanlisib (NSC816437), ipatasertib (NSC767898), afuresertib (NSC778305), talazoparib (NSC767125), sapanisertib (NSC764658), selumetinib (NSC741078), tovorafenib (DAY101, NSC766906), vemurafenib (NSC761431), ravoxertinib (NSC781343), sotorasib (NSC818433), MRTX1133 (NSC 836407), abemaciclib (NSC 768073), palbociclib (NSC758247), venetoclax (NSC 766270), SY5609 (NSC837396), enzalutamide (NSC755605), and darolutamide (NSC825331), were obtained from the National Cancer Institute (NCI) Developmental Therapeutics Program Chemical Repository. The FDA-approved anticancer drug set is available from the NCI Developmental Therapeutics Program. […] The stock solutions were prepared in dimethyl sulfoxide (DMSO, Sigma-Aldrich, St. Louis, MO, cat. D2650) at 800-fold the tested concentration and stored at -70 degrees C prior to their use. All drugs and investigational agents were tested over a range starting from a high concentration at or near the clinical Cmax and decreasing in half-log increments. If the clinical Cmax for an agent had not been determined, the highest concentration tested was 10 microM.
Cell Culture. All cells were maintained in an incubator at 37 degrees C and 5% CO2 with 95% humidity. The PDC lines were cultured according to standard operating procedures established by the NCI PDMR (https://pdmr.cancer.gov/sops/default.htm). All PDCs were thawed and cultured in Matrigel-coated flasks prepared with a working solution of 1X Ham's F-12 nutrient mix, without supplementation (Invitrogen, Waltham, MA, cat. 11765054), 100 U/mL penicillin-streptomycin (Invitrogen, cat. 15140122), and 2.5% Matrigel (Corning Inc., Corning, NY, cat. 354248) for the first three passages. The 354836-022-R-J1-PDC, 475296-252-R-J1-PDC, and 997726-040-R-J2-PDC lines were cultured in 6A media, which includes advanced DMEM/F-12 (Thermo Fisher Scientific, cat. 12634028), 10 mM HEPES (Thermo Fisher Scientific, cat. 15630080), 1X GlutaMAX supplement (Thermo Fisher Scientific, cat. 35050061), 0.1 mg/mL primocin (InvivoGen, San Diego, CA, cat. ant-pm-2), 10% defined fetal bovine serum, heat inactivated (HyClone Laboratories Inc., Logan, UT, cat. SH30070.03HI), 50% L-WRN conditioned media (ATCC, cat. CRL-3276), 1.25 mM N-Acetyl-L-cysteine (Sigma-Aldrich, cat. A9165), 10 mM nicotinamide (Sigma-Aldrich, cat. N0636), 1X B-27 supplement (Thermo Fisher Scientific, cat. 17504044), 1X N-2 supplement (Thermo Fisher Scientific, cat. 17502048), and 10 microM Y-27632 dihydrochloride (Tocris Bioscience, Bristol, United Kingdom, cat. 1254). The 624824-186-R-J2-PDC line was cultured in 6C/Colon 1B media, which includes all 6A media components plus 50 ng/mL human EGF recombinant protein (Thermo Fisher Scientific, cat. PHG0311). […]

[1] = second compound 0.00316 µM, first compound 0.0316 µM
[2] = second compound 0.00316 µM, first compound 0.1 µM
[3] = second compound 0.00316 µM, first compound 0.316 µM
[4] = second compound 0.00316 µM, first compound 1 µM
[5] = second compound 0.00316 µM, first compound 3.16 µM
[6] = second compound 0.00316 µM, first compound 10 µM
[7] = second compound 0.01 µM, first compound 0.0316 µM
[8] = second compound 0.01 µM, first compound 0.1 µM
[9] = second compound 0.01 µM, first compound 0.316 µM
[10] = second compound 0.01 µM, first compound 1 µM
[11] = second compound 0.01 µM, first compound 3.16 µM
[12] = second compound 0.01 µM, first compound 10 µM
[13] = second compound 0.0316 µM, first compound 0.0316 µM
[14] = second compound 0.0316 µM, first compound 0.1 µM
[15] = second compound 0.0316 µM, first compound 0.316 µM
[16] = second compound 0.0316 µM, first compound 1 µM
[17] = second compound 0.0316 µM, first compound 3.16 µM
[18] = second compound 0.0316 µM, first compound 10 µM
[19] = second compound 0.1 µM, first compound 0.0316 µM
[20] = second compound 0.1 µM, first compound 0.1 µM
[21] = second compound 0.1 µM, first compound 0.316 µM
[22] = second compound 0.1 µM, first compound 1 µM
[23] = second compound 0.1 µM, first compound 3.16 µM
[24] = second compound 0.1 µM, first compound 10 µM
[25] = second compound 0.316 µM, first compound 0.0316 µM
[26] = second compound 0.316 µM, first compound 0.1 µM
[27] = second compound 0.316 µM, first compound 0.316 µM
[28] = second compound 0.316 µM, first compound 1 µM
[29] = second compound 0.316 µM, first compound 3.16 µM
[30] = second compound 0.316 µM, first compound 10 µM
[31] = second compound 1 µM, first compound 0.0316 µM
[32] = second compound 1 µM, first compound 0.1 µM
[33] = second compound 1 µM, first compound 0.316 µM
[34] = second compound 1 µM, first compound 1 µM
[35] = second compound 1 µM, first compound 3.16 µM
[36] = second compound 1 µM, first compound 10 µM
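Note: spheroids exposed to agents for 7 days before viability read.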
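Throughout, for viability, T/C: 100% = DMSO vehicle treated spheroids.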

IC50 (second compound 0.00316 µM): > 10 µM
IC50 (second compound 0.01 µM): > 10 µM
IC50 (second compound 0.0316 µM): > 10 µM
IC50 (second compound 0.1 µM): > 10 µM
IC50 (second compound 0.316 µM): > 10 µM
IC50 (second compound 1 µM): > 10 µM
SMILES: CC1(C)CCC(CN2CCN(c3ccc(C(=O)NS(=O)(=O)c4ccc(NCC5CCOCC5)c([N+](=O)[O-])c4)c(Oc4cnc5[nH]ccc5c4)c3)CC2)=C(c2ccc(Cl)cc2)C1 + CC(Nc1ccc2c(c1)OCCn1cc(N3C(=O)OCC3C(F)F)nc1-2)C(N)=O
viability, T/C [1]: 88.5%
viability, T/C [2]: 86.8%
viability, T/C [3]: 104%
viability, T/C [4]: 96.9%
viability, T/C [5]: 89.1%
viability, T/C [6]: 77.4%
viability, T/C [7]: 93.3%
viability, T/C [8]: 81.3%
viability, T/C [9]: 123%
viability, T/C [10]: 93.7%
viability, T/C [11]: 75.5%
viability, T/C [12]: 69%
viability, T/C [13]: 81.4%
viability, T/C [14]: 90.5%
viability, T/C [15]: 99.9%
viability, T/C [16]: 72.7%
viability, T/C [17]: 74.5%
viability, T/C [18]: 79.1%
viability, T/C [19]: 72.7%
viability, T/C [20]: 66.9%
viability, T/C [21]: 79.1%
viability, T/C [22]: 66.9%
viability, T/C [23]: 81.1%
viability, T/C [24]: 56.6%
viability, T/C [25]: 79.6%
viability, T/C [26]: 74.2%
viability, T/C [27]: 94.9%
viability, T/C [28]: 77.4%
viability, T/C [29]: 79.1%
viability, T/C [30]: 63%
viability, T/C [31]: 87.1%
viability, T/C [32]: 93.3%
viability, T/C [33]: 79.3%
viability, T/C [34]: 86%
viability, T/C [35]: 94.4%
viability, T/C [36]: 77.8%

IC50 (second compound 0.00316 µM): > 10 µM
IC50 (second compound 0.01 µM): > 10 µM
IC50 (second compound 0.0316 µM): > 10 µM
IC50 (second compound 0.1 µM): > 10 µM
IC50 (second compound 0.316 µM): > 10 µM
IC50 (second compound 1 µM): > 10 µM
SMILES: C[C@@H](NC(=O)c1ncnc(N)c1Cl)c1ncc(C(=O)Nc2cc(C(F)(F)F)c(Cl)cn2)s1 + CC(Nc1ccc2c(c1)OCCn1cc(N3C(=O)OCC3C(F)F)nc1-2)C(N)=O
viability, T/C [1]: 108%
viability, T/C [2]: 107%
viability, T/C [3]: 73.1%
viability, T/C [4]: 59.5%
viability, T/C [5]: 78%
viability, T/C [6]: 77.9%
viability, T/C [7]: 110%
viability, T/C [8]: 86.4%
viability, T/C [9]: 80.7%
viability, T/C [10]: 72.8%
viability, T/C [11]: 78.8%
viability, T/C [12]: 77.2%
viability, T/C [13]: 92.6%
viability, T/C [14]: 90.5%
viability, T/C [15]: 83%
viability, T/C [16]: 63.5%
viability, T/C [17]: 73.4%
viability, T/C [18]: 78.2%
viability, T/C [19]: 115%
viability, T/C [20]: 99.2%
viability, T/C [21]: 65.7%
viability, T/C [22]: 69.4%
viability, T/C [23]: 77.6%
viability, T/C [24]: 68.7%
viability, T/C [25]: 98%
viability, T/C [26]: 77%
viability, T/C [27]: 68.7%
viability, T/C [28]: 68.5%
viability, T/C [29]: 67.2%
viability, T/C [30]: 56.6%
viability, T/C [31]: 77%
viability, T/C [32]: 93.7%
viability, T/C [33]: 68.4%
viability, T/C [34]: 63.2%
viability, T/C [35]: 55.4%
viability, T/C [36]: 53.1%
